Patent publication US9302999B2, “Substituted triazoles as herbicides” (E. I. DU PONT DE NEMOURS AND COMPANY, priority 2012, dated 2016)

Key:
Type in all cases: in vivo
Conditions in all cases: Preemergence, scale 0 to 100
[1] = tested on: barnyardgrass (Echinochloa crus-galli); experiment: Test E pre-/postemergence: barnyardgrass
Procedure, shortened: (§1)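 Visual injury scored 0–100 (0 no effect, 100 complete control) against controls after 14 to 21 days in greenhouse. Compounds formulated in surfactant-containing non-phytotoxic solvent, applied pre-emergence to seeded silt loam or post-emergence to 1- to 4-leaf plants in peat-based medium.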

[2] = tested on: nutsedge, yellow (yellow nutsedge, Cyperus esculentus); experiment: Test E pre-/postemergence: nutsedge, yellow
From the text: (§2) Seeds of plant species selected from corn (Zea mays), soybean (Glycine max), velvetleaf (Abutilon theophrasti), lambsquarters (Chenopodium album), poinsettia, wild (wild poinsettia, Euphorbia heterophylla), pigweed, palmer (palmer pigweed, Amaranthus palmeri), waterhemp (common waterhemp, Amaranthus rudis), smartweed (ladysthumb smartweed, Polygonum persicaria), surinam grass (Brachiaria decumbens), crabgrass, large (large crabgrass, Digitaria sanguinalis), crabgrass, Brazil (Brazilian crabgrass, Digitaria horizontalis), panicum, fall (fall panicum, Panicum dichotomiflorum), foxtail, giant (giant foxtail, Setaria faberii), foxtail, green (green foxtail, Setaria viridis), goosegrass (Eleusine indica), johnsongrass (Sorghum halepense), ragweed (common ragweed, Ambrosia elation), barnyardgrass (Echinochloa crus-galli), sandbur (southern sandbur, Cenchrus echinatus), arrowleaf sida (Sida rhombifolia), ryegrass, Italian (Italian ryegrass, Lolium multiflorum), dayflower, (VA) (Virginia dayflower, Commelina virginica), field bindweed (Convolvulus arvensis), cocklebur (common cocklebur, Xanthium strumarium), morningglory (Ipomoea coccinea), nightshade (eastern black nightshade, Solanum ptycanthum), kochia (Kochia scoparia), nutsedge, yellow (yellow nutsedge, Cyperus esculentus) and beggarticks (hairy beggarticks, Bidens pilosa) were planted into a silt loam soil and treated preemergence with test chemicals formulated in a non-phytotoxic solvent mixture which included a surfactant. At the same time, plants selected from these crop and weed species were planted in pots containing a growing medium comprising spaghnum peat moss, vermiculite, wetting agent and starter nutrients and treated with postemergence applications of some of the test chemicals formulated in the same manner. Plants ranged in height from 2 to 18 cm for postemergence treatments (1- to 4-leaf stage).
(§3) Treated plants and controls were maintained in a greenhouse for 14 to 21 days, after which time all species were compared to controls and visually evaluated. Plant response ratings, summarized in Table E, are based on a scale of 0 to 100 where 0 is no effect and 100 is complete control. A dash (-) response means no test result.

[3] = tested on: ragweed (common ragweed, Ambrosia elation); experiment: Test E pre-/postemergence: ragweed
From the text: as §2, §3

[4] = tested on: beggarticks (hairy beggarticks, Bidens pilosa); experiment: Test E pre-/postemergence: beggarticks
From the text: as §2, §3

[5] = tested on: panicum, fall (fall panicum, Panicum dichotomiflorum); experiment: Test E pre-/postemergence: panicum, fall
From the text: as §2, §3

[6] = tested on: field bindweed (Convolvulus arvensis); experiment: Test E pre-/postemergence: field bindweed
Procedure, shortened: as §1

soybean (Glycine max) = experiment: Test E pre-/postemergence: soybean
Procedure, shortened: as §1

[7] = tested on: crabgrass, Brazil (Brazilian crabgrass, Digitaria horizontalis); experiment: Test E pre-/postemergence: crabgrass, Brazil
Procedure, shortened: as §1

[8] = tested on: goosegrass (Eleusine indica); experiment: Test E pre-/postemergence: goosegrass
Procedure, shortened: as §1

[9] = tested on: cocklebur (common cocklebur, Xanthium strumarium); experiment: Test E pre-/postemergence: cocklebur
Procedure, shortened: as §1

[10] = tested on: poinsettia, wild (wild poinsettia, Euphorbia heterophylla); experiment: Test E pre-/postemergence: poinsettia, wild
Procedure, shortened: as §1

## FC(F)(F)COc1nn(-c2ccc(C(F)(F)F)cc2)nc1Cc1ccnc(C(F)(F)F)c1 [Compound 14, 4-[[5-(2,2,2-trifluoroethoxy)-2-[4-(trifluoromethyl)phenyl]-2H-1,2,3-triazol-4-yl]methyl]-2-(trifluoromethyl)pyridine]
[1]; 16 g ai/ha
  Plant response rating: Barnyardgrass: 5
[1]; 31 g ai/ha
  Plant response rating: Barnyardgrass: 15
[1]; 62 g ai/ha
  Plant response rating: Barnyardgrass: 35
[1]; 125 g ai/ha
  Plant response rating: Barnyardgrass: 60
[1]; 250 g ai/ha
  Plant response rating: Barnyardgrass: 60
[2]; 16 g ai/ha
  Plant response rating: Nutsedge, Yellow: 0
[2]; 31 g ai/ha
  Plant response rating: Nutsedge, Yellow: 0
[2]; 62 g ai/ha
  Plant response rating: Nutsedge, Yellow: 0
[2]; 125 g ai/ha
  Plant response rating: Nutsedge, Yellow: 0
[2]; 250 g ai/ha
  Plant response rating: Nutsedge, Yellow: 15
[3]; 16 g ai/ha
  Plant response rating: Ragweed: 0
[3]; 31 g ai/ha
  Plant response rating: Ragweed: 20
[3]; 62 g ai/ha
  Plant response rating: Ragweed: 35
[3]; 125 g ai/ha
  Plant response rating: Ragweed: 80
[3]; 250 g ai/ha
  Plant response rating: Ragweed: 90
[4]; 16 g ai/ha
  Plant response rating: Beggarticks: 5
[4]; 31 g ai/ha
  Plant response rating: Beggarticks: 50
[4]; 62 g ai/ha
  Plant response rating: Beggarticks: 90
[4]; 125 g ai/ha
  Plant response rating: Beggarticks: 98
[4]; 250 g ai/ha
  Plant response rating: Beggarticks: 100
[5]; 16 g ai/ha
  Plant response rating: Panicum, Fall: 65
[5]; 31 g ai/ha
  Plant response rating: Panicum, Fall: 80
[5]; 62 g ai/ha
  Plant response rating: Panicum, Fall: 100
[5]; 125 g ai/ha
  Plant response rating: Panicum, Fall: 100
[5]; 250 g ai/ha
  Plant response rating: Panicum, Fall: 100
[6]; 16 g ai/ha
  Plant response rating: Field Bindweed: 5
[6]; 31 g ai/ha
  Plant response rating: Field Bindweed: 20
[6]; 62 g ai/ha
  Plant response rating: Field Bindweed: 65
[6]; 125 g ai/ha
  Plant response rating: Field Bindweed: 65
[6]; 250 g ai/ha
  Plant response rating: Field Bindweed: 75
Soybean (Glycine max); 16 g ai/ha
  Plant response rating: Soybean: 0
Soybean (Glycine max); 31 g ai/ha
  Plant response rating: Soybean: 10
Soybean (Glycine max); 62 g ai/ha
  Plant response rating: Soybean: 25
Soybean (Glycine max); 250 g ai/ha
  Plant response rating: Soybean: 35
[7]; 16 g ai/ha
  Plant response rating: Crabgrass, Brazil: 60
[7]; 31 g ai/ha
  Plant response rating: Crabgrass, Brazil: 75
[7]; 62 g ai/ha
  Plant response rating: Crabgrass, Brazil: 100
[7]; 125 g ai/ha
  Plant response rating: Crabgrass, Brazil: 100
[7]; 250 g ai/ha
  Plant response rating: Crabgrass, Brazil: 100
[8]; 16 g ai/ha
  Plant response rating: Goosegrass: 65
[8]; 31 g ai/ha
  Plant response rating: Goosegrass: 100
[8]; 62 g ai/ha
  Plant response rating: Goosegrass: 100
[8]; 125 g ai/ha
  Plant response rating: Goosegrass: 100
[8]; 250 g ai/ha
  Plant response rating: Goosegrass: 100
[9]; 16 g ai/ha
  Plant response rating: Cocklebur: 0
[9]; 31 g ai/ha
  Plant response rating: Cocklebur: 0
[9]; 62 g ai/ha
  Plant response rating: Cocklebur: 0
[9]; 125 g ai/ha
  Plant response rating: Cocklebur: 50
[10]; 16 g ai/ha
  Plant response rating: Poinsettia, Wild: 15
[10]; 31 g ai/ha
  Plant response rating: Poinsettia, Wild: 25
[10]; 62 g ai/ha
  Plant response rating: Poinsettia, Wild: 50
[10]; 125 g ai/ha
  Plant response rating: Poinsettia, Wild: 65
[10]; 250 g ai/ha
  Plant response rating: Poinsettia, Wild: 75
